# Reference: patent US20080260650A1, “Methods of Detection and Therapy of Inflamed Tissues Using Immune Modulation” (THE GENERAL HOSPITAL Corporation, priority 2004, published 2008)
# System: infected lesion (Candida albicans, left thigh)
# Assay type: in vivo, mice (C57/BL)
# Conditions: Candida-inoculated mice, day 8; GMCSF intramuscularly 3 days before PET; FDG 2 mCi/Kg via tail vein, PET 3 hours later; p<0.05 vs pre-GMCSF
# Experimental: Candida albicans was suspended in saline to achieve a concentration of 2.5×10^9 yeast cells/ml. Three mice (C57/BL, Jackson Laboratories, Bar Harbor, Me.) were injected intramuscularly in the left thigh with 5×10^8 Candida albicans cells suspended in 0.2 ml of saline. The right thigh was injected with 0.2 ml of saline as a control.
# Imaging of the animals was performed on days 5 and 8 after Candida inoculation. […] GMCSF was administered intramuscularly immediately after the first PET images were obtained (3 days prior to the second PET imaging).
substance,measurement,value
"GMCSF: granulocyte-macrophage colony stimulating factor, immune modulator; FDA approved under the tradename Leukine","FDG uptake within the infected lesion, post-GMCSF",8150 nCi/cc
